System: rats having the urination disorder associated with diabetes
Test: Test Example 4: urination disorder model associated with streptozocin-induced diabetes (tissue weights, blood glucose, cystometry, nomogram)
Format: in vivo
Details: for Bladder weight / Blood glucose level / Kidney weight / Prostate weight, dorsolateral prostate / Prostate weight, ventral prostate / Prostate weight, whole / Seminal vesicle weight: 4 weeks; for Bladder weight / Blood glucose level / Kidney weight / Prostate weight, dorsolateral prostate / Prostate weight, ventral prostate / Prostate weight, whole / Seminal vesicle weight / Body weight: average ± SD; for Dorsolateral prostate atrophy rate / Seminal vesicle atrophy rate / Ventral prostate atrophy rate / Whole prostate atrophy rate: relative to solvent group; for Body weight: model with induced diabetes (STZ), male rats
Method: As described below, as a urination disorder model, a urination disorder model associated with diabetes was prepared to evaluate the urination disorder. This model has no benign prostatic hyperplasia and is a model of a urination disorder associated with neuropathy and smooth muscle contraction disorder.
The body weights of rats (male, Crl:CD(SD), 5-week-old; Charles River Laboratories Japan, Inc.) were measured. After the rats were fasted overnight, the blood was collected from the caudal vein to measure the fasting blood glucose. On the basis of the body weight and the fasting blood glucose level, the rats were grouped or divided into two (2) groups by randomized, multivariable block allocation. The day after the rats were grouped, a first group received intraperitoneal administration of a citrate buffer (pH 4.5) (10 mL/kg) having a concentration of 0.1 mmol/L, and a second group received intraperitoneal administration of streptozocin (STZ; Sigma-Aldrich) (50 mg/kg). Streptozocin (STZ) was administered in the form of a solution of streptozocin having a concentration of 5 mg/mL in the citrate buffer.
About one (1) week after streptozocin (STZ) was administered, the body weight and the fasting blood glucose were measured. In the streptozocin (STZ) administration group (the second group), individuals having a fasting blood glucose level of not less than 300 mg/dL were used as animals with induced diabetes. These animals with induced diabetes are a model having no abnormality of the prostate (having no benign prostatic hyperplasia). On the basis of the body weight and the fasting blood glucose level, the animals (models) with induced diabetes were grouped or divided into three (3) groups by randomized, multivariable block allocation.
To the three model groups with induced diabetes, a 0.5 v/v % Polysorbate 80 solution (0.5% P) (10 mL/kg), the compound A (3 mg/kg), and the compound A (10 mg/kg) were orally administered, respectively, wherein the administration schedule in all groups was a frequency of once a day, only on weekdays, over four (4) weeks. Moreover, to the above-mentioned first group, a 0.5 v/v % Polysorbate 80 solution (0.5% P) (10 mL/kg) was orally administered in the same administration schedule (normal group). On the last day of administration, a cannula was inserted into and secured to the dome of the bladder under isoflurane anesthesia, and cystometry (Cystometogram, CMG) was conducted in the order of under awake condition and under urethane anesthesia to measure the intravesical pressure, the voided volume, and the residual urine volume. After the completion of the measurement, the blood was collected under deep isoflurane anesthesia, and then the prostate (ventral prostate, dorsolateral prostate), the seminal vesicle, the bladder, and the kidney were extracted and were each weighed. Moreover, the blood glucose level in the collected blood was measured.
The test substances and the dosage in the test system (rats having the urination disorder associated with diabetes) are as follows. • Normal group: citrate buffer 10 mL/kg (intraperitoneal administration), 0.5% P 10 mL/kg (oral administration) (n=10) • Solvent group (control group): STZ 50 mg/kg (intraperitoneal administration), 0.5% P 10 mL/kg (oral administration) (n=10) • Group A3: STZ 50 mg/kg (intraperitoneal administration), Compound A 3 mg/kg (oral administration) (n=10) • Group A10: STZ 50 mg/kg (intraperitoneal administration), Compound A 10 mg/kg (oral administration) (n=9)
The resulting data of the intravesical pressure, the voided volume, and the residual urine volume were analyzed, and the bladder capacity (mL), the residual urine volume […], and the urination efficiency (%) were determined as urination parameters in each urination. With respect to these urination parameters, the average value of two measurements was calculated and was taken as a measured value of each individual. […]

[1] = STZ diabetes model, 3 mg/kg, vs solvent group
[2] = STZ diabetes model, 10 mg/kg, vs solvent group
[3] = STZ diabetes model, Group A3 and Group A10 (3 and 10 mg/kg)
[4] = STZ diabetes model, oral 3 mg/kg
[5] = STZ diabetes model, oral 10 mg/kg

Which results are given for `CC(=O)O[C@]1(C(C)=O)C[C@@H](O)[C@H]2[C@@H]3C=C(Cl)C4=CC(=O)OC[C@]4(C)[C@H]3CC[C@@]21C` [Compound A, 17α-acetoxy-6-chloro-15β-hydroxy-2-oxa-4,6-pregnadiene-3,20-dione]?
bladder capacity, cystometry (CMG) under awake condition [1]: significantly reduced; residual urine volume, cystometry (CMG) under anesthesia [1]: significantly decreased; residual urine volume, cystometry (CMG) under awake condition [1]: significantly reduced; urination efficiency, cystometry (CMG) under awake condition [1]: improved; bladder capacity, cystometry (CMG) under awake condition [2]: significantly reduced; residual urine volume, cystometry (CMG) under anesthesia [2]: significantly decreased; residual urine volume, cystometry (CMG) under awake condition [2]: significantly reduced; bladder capacity, cystometry (CMG) under anesthesia (STZ diabetes model, 10 mg/kg, vs solvent group (P=0.0336, Williams's multiple comparison test)): reduced; urination efficiency, cystometry (CMG) under awake condition (STZ diabetes model, 10 mg/kg, vs solvent group (P=0.0359, Williams's multiple comparison test)): significantly improved; action on the body weight, the blood glucose level, or the bladder and kidney weights [3]: no action or influence; urination efficiency, cystometry (CMG) under anesthesia [3]: improved; bladder contraction force on urination by nomogram analysis (STZ diabetes model, Group A3 and Group A10 (3 and 10 mg/kg), in comparison with the solvent group): strong bladder contraction force; prostate and seminal vesicle weights (STZ diabetes model, Group A3 and Group A10 (3 and 10 mg/kg), vs solvent group): significantly decreased; therapeutic effect on diabetes (STZ diabetes model, blood glucose level of Group A3 and Group A10 relative to the solvent group): no therapeutic effect; Bladder weight [4]: 79.3 ± 17.5 mg/100 g body weight; Blood glucose level [4]: 912.8 ± 177.3 mg/dL; Kidney weight [4]: 1114.9 ± 189.2 mg/100 g body weight; Prostate weight, dorsolateral prostate [4]: 35.3 ± 7.8 mg/100 g body weight; Prostate weight, ventral prostate [4]: 62.2 ± 11.4 mg/100 g body weight; Prostate weight, whole [4]: 97.5 ± 17.7 mg/100 g body weight; Seminal vesicle weight [4]: 44.3 ± 9.6 mg/100 g body weight; Dorsolateral prostate atrophy rate [4]: (44.2%); Seminal vesicle atrophy rate [4]: (41.8%); Ventral prostate atrophy rate [4]: (43.0%); Whole prostate atrophy rate [4]: (43.4%); Bladder weight [5]: 72.9 ± 11.6 mg/100 g body weight; Blood glucose level [5]: 846.7 ± 342.5 mg/dL; Kidney weight [5]: 1171.0 ± 213.3 mg/100 g body weight; Prostate weight, dorsolateral prostate [5]: 28.8 ± 6.1 mg/100 g body weight; Prostate weight, ventral prostate [5]: 53.1 ± 13.5 mg/100 g body weight; Prostate weight, whole [5]: 81.9 ± 19.0 mg/100 g body weight; Seminal vesicle weight [5]: 37.9 ± 6.4 mg/100 g body weight; Dorsolateral prostate atrophy rate [5]: (54.5%); Seminal vesicle atrophy rate [5]: (50.2%); Ventral prostate atrophy rate [5]: (51.3%); Whole prostate atrophy rate [5]: (52.5%); Body weight (oral 3 mg/kg once a day on weekdays 4 weeks): 327.5 ± 51.3 g; Body weight (oral 10 mg/kg once a day on weekdays 4 weeks): 356.4 ± 80.9 g
